Test results from BindingDB's records for doi:10.1016/j.ejmech.2017.04.079 (Harvard Medical School, 2017).

Assays:
[1] = Inhibition of EGFR L858R mutant (unknown origin) transfected in mouse BAF3 cells assessed as reduction in cell viability after 72 hrs by MTS assay
[2] = Inhibition of EGFR T790M/L858R double mutant (unknown origin) transfected in mouse BAF3 cells assessed as reduction in cell viability after 72 hrs by MTS assay
[3] = Inhibition of EML4/ALK (unknown origin) transfected in mouse BAF3 cells assessed as reduction in cell viability after 72 hrs by MTS assay

Row | Compound | EC50 [1] [nM] | EC50 [2] [nM] | EC50 [3] [µM]
1 | CCC(=O)Nc1cc(Nc2ncc(Cl)c(Nc3ccccc3S(=O)(=O)C(C)C)n2)c(OC)cc1N(C)CCN(C)C | 666 | 972 | 
2 | C=CC(=O)Nc1cc(Nc2nccc(-c3cn(C)c4ccccc34)n2)c(OC)cc1N(C)CCN(C)C [AZD-9291] |  |  | 1.75
3 | C=CC(=O)Nc1cccc(Oc2nc(Nc3ccc(N4CCN(C)CC4)cc3OC)ncc2Cl)c1 |  |  | 6.26
4 | C=CC(=O)Nc1cc(Nc2nccc(Nc3ccccc3P(C)(C)=O)n2)c(OC)cc1N(C)CCN(C)C |  |  | > 5
